Test [1] has as its target T1, GST-tagged recombinant human TYRO3 kinase domain (Homo sapiens, UniProt Q06418).
T1 construct: GST-tagged recombinant human TYRO3 kinase domain; purchased Carna PR7480A
T1 sequence (Q06418 518-790 limits assumed): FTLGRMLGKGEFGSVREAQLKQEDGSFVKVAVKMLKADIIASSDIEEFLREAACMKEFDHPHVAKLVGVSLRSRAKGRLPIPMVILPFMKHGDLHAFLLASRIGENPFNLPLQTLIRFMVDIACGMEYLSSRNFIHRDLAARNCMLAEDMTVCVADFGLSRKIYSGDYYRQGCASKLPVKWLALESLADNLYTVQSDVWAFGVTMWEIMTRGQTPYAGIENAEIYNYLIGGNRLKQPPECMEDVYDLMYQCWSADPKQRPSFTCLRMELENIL
Put plainly: TYRO3 Enzyme Assay (LanthaScreen Eu Kinase Binding). As to conditions: averaged IC50; TYRO3 5 nM; 60-minute incubation at 22° C.; TR-FRET. Here is the method: Compounds disclosed herein were screened for their ability to inhibit TYRO3 kinase using Invitrogen's LanthaScreenTM Eu Kinase Binding technology. GST-tagged recombinant human TYRO3 kinase domain from Carna (5 nM; Cat. No. P[…]) was incubated with 20 nM Alexa-Fluor® Tracer 236 (P[…]) and 2 nM Europium-anti-GST (Cat. No. A15116) along with test compound in a buffer consisting of 25 mM HEPES, pH 7.4, 10 mM MgCl2, 0.01% Triton X-100, and 2% DMSO. Compounds are typically prepared in a threefold serial dilution in DMSO and added to the assay to give the appropriate final concentration. After a 60-minute incubation at 22° C., the reaction was measured using a PerkinElmer EnVision multimode plate reader via TR-FRET dual wavelength detection, and the percent of control (POC) calculated using a ratiometric emission factor. […] The POC values were fit to a 4 parameter logistic curve and the IC50 value is point where the curve crosses 50 POC.
In general terms: TR-FRET usually uses a lanthanide donor and a delayed reading to cut background.

The target in test [2] is T2, His-tagged recombinant human MER cytoplasmic domain (Homo sapiens, UniProt Q12866).
T2 construct: His-tagged recombinant human MER cytoplasmic domain
T2 sequence (Q12866 527-999 limits assumed): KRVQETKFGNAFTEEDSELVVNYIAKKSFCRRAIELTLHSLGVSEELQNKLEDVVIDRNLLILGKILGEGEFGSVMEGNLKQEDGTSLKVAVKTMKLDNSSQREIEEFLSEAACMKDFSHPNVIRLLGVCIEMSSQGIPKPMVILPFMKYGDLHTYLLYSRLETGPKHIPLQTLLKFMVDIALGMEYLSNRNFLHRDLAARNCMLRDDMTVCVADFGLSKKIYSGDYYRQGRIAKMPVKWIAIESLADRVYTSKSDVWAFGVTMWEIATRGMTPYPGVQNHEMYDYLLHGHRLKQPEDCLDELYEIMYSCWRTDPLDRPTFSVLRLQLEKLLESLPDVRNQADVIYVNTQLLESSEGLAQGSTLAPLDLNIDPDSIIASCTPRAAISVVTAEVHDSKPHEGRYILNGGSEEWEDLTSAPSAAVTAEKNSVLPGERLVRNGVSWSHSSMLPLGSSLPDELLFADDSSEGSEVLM
Put plainly: MER Enzyme Assay (LanthaScreen Eu Kinase Binding). The note with it: averaged IC50; MER 5 nM; 60-minute incubation at 22° C.; TR-FRET. Here is the method: (§1) Compounds disclosed herein were screened for their ability to inhibit […] kinase using Invitrogen's LanthaScreen™Eu Kinase Binding technology. His-tagged recombinant human MER cytoplasmic domain (5 nM) was incubated with 20 nM Alexa-Fluor® Tracer 236 (PR9078A), 2 nM biotinylated anti-His (Cat. No. M4408), and 2 nM europium-labeled Streptavidin (Cat. No. PV5899) along with test compound in a buffer consisting of 25 mM HEPES, pH 7.4, 10 mM MgCl 2, 0.01% Triton X-100, and 2% DMSO. Compounds were typically prepared in a threefold serial dilution in DMSO and added to the assay to give the appropriate final concentration. After a 60-minute incubation at 22° C., the reaction was measured using a PerkinElmer EnVision multimode plate reader via TR-FRET dual wavelength detection, and the percent of control (POC) was calculated using a ratiometric emission factor. […] The POC values are fit to a 4 parameter logistic curve and the IC50 value is point where the curve crosses 50 POC.

The target in test [3] is T3, His-tagged recombinant human AXL cytoplasmic domain (Homo sapiens, UniProt P30530).
T3 construct: His-tagged recombinant human AXL cytoplasmic domain
T3 sequence (P30530 473-894 limits assumed): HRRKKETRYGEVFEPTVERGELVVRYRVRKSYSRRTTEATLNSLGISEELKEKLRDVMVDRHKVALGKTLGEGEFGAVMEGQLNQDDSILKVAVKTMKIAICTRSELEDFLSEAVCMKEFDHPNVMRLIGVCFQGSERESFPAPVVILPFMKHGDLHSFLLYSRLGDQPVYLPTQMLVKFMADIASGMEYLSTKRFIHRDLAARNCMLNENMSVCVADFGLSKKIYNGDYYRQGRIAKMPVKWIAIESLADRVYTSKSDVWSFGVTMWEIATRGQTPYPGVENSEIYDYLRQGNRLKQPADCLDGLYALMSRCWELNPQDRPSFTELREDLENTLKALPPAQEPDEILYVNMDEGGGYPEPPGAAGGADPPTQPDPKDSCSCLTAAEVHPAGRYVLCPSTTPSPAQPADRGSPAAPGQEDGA
Put plainly: AXL Enzyme Assay (LanthaScreen Eu Kinase Binding). The note with it: averaged IC50; 60-minute incubation at 22° C.; TR-FRET. Here is the method: as §1, with “AXL” for “MER”, “domain” for “domain (5 nM)”, “MgCl2,” for “MgCl 2,”

The structures appear in SMILES notation.

Turning to `COc1ccc2nccc(Oc3ccc(NC(=O)c4cn(C(C)C)cc(-c5ccc(F)cc5)c4=O)nc3)c2c1` [Example 40, 5-(4-fluorophenyl)-1-isopropyl-N-(5-((6-methoxyquinolin-4-yl)oxy)pyridin-2-yl)-4-oxo-1,4-dihydropyridine-3-carboxamide], the concentration for half-maximal inhibition (IC50) – broadly, the concentration at which inhibition is half-maximal – is 19 nM in test [1], 19 nM in test [2] and 6 nM in test [3].

The record behind these values is patent US20200216416A1, “QUINOLINE COMPOUNDS AS INHIBITORS OF TAM AND MET KINASES” (Array BioPharma Inc., priority 2019, published 2020).
